Assay type in all cases: biochemical
For one test, the target named is T1, Btk (Homo sapiens, UniProt Q06187).
T1 construct: purified from insect cells as a full-length construct containing a N-terminal 6X-His tag; His6 (N); made in house; host or cells: insect cells (Method C)
Briefly: Btk in vitro inhibitory activity (one of Method A TR-FRET, Method B electrophoretic mobility shift, Method C radiometric filter binding). Conditions: wild-type Btk; read-out: Btk-WT IC50. The procedure, abridged:
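Method A: TR-FRET with 0.5 nM Btk at [ATP]=Km, EDTA-quenched, 665/615 nm ratio; Ki(app) converted to IC50. Method B: 1 nM full-length His6 human BTK, 1 μM FAM peptide, pH 7.5, mobility-shift product/sum ratio, 12-point 4-parameter fit. Method C: radiometric filter binding, 8 nM His-tagged BTK, 0.2 mg/mL poly-Glu-Tyr.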

The target in a further test is T2, TEC (Homo sapiens, UniProt P42680).
T2 sequence (P42680 1-631): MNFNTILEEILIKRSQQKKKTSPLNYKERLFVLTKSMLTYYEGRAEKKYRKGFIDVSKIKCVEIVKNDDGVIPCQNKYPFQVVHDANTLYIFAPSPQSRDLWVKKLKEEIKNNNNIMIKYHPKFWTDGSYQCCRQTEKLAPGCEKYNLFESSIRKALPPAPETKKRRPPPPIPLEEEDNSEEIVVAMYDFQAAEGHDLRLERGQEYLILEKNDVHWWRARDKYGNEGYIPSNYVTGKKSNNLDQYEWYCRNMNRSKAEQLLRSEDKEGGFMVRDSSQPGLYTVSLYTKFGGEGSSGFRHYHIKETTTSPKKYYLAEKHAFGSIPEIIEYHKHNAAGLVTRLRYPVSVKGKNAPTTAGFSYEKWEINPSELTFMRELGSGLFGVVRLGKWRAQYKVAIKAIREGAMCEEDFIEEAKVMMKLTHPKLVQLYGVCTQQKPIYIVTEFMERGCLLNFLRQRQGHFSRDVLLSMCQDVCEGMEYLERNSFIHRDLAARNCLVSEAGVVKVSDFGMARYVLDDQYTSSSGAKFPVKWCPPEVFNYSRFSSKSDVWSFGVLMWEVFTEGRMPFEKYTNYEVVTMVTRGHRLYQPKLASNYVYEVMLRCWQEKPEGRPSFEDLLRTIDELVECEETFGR
Briefly: Inhibition of a panel of kinases (in vitro HotSpot kinase assay, 33P-ATP, 1 μM ATP). To be noted: HotSpot kinase assay, 1 μM ATP. The essentials: (§1)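 Purified kinase enzymes were incubated with an appropriate substrate and 33P-labelled ATP at 1 μM ATP. Inhibition was measured radiometrically from incorporation of the 33P label.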

For the next test, the target named is T3, panel of kinases (Homo sapiens, UniProt P51813).
T3 sequence (P51813 1-675): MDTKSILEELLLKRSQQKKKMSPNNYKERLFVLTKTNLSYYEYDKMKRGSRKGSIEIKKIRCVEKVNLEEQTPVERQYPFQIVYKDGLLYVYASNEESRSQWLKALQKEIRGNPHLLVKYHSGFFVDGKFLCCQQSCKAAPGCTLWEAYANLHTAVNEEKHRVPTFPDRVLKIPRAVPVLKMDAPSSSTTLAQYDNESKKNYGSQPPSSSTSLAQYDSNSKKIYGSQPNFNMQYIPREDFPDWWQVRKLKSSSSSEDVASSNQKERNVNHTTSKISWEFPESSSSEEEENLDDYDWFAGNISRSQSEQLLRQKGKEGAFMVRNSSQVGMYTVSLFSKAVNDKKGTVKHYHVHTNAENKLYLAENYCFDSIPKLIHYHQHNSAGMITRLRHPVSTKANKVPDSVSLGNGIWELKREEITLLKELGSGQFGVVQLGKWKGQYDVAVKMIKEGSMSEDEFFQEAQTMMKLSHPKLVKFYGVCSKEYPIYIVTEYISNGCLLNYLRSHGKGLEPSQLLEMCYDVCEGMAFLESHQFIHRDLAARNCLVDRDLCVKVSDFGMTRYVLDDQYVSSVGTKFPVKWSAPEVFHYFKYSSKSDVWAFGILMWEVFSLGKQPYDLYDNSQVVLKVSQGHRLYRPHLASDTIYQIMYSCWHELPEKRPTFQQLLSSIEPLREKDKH
Briefly: Inhibition of a panel of kinases (in vitro HotSpot kinase assay, 33P-ATP, 1 μM ATP), other kinases. To be noted: BMX wild-type, read-out: BMX-WT IC50. The procedure, abridged:
as §1

Each structure is given as a SMILES string. pIC50: −log10 of the molar value.

T1 sequence (Q06187 whole entry): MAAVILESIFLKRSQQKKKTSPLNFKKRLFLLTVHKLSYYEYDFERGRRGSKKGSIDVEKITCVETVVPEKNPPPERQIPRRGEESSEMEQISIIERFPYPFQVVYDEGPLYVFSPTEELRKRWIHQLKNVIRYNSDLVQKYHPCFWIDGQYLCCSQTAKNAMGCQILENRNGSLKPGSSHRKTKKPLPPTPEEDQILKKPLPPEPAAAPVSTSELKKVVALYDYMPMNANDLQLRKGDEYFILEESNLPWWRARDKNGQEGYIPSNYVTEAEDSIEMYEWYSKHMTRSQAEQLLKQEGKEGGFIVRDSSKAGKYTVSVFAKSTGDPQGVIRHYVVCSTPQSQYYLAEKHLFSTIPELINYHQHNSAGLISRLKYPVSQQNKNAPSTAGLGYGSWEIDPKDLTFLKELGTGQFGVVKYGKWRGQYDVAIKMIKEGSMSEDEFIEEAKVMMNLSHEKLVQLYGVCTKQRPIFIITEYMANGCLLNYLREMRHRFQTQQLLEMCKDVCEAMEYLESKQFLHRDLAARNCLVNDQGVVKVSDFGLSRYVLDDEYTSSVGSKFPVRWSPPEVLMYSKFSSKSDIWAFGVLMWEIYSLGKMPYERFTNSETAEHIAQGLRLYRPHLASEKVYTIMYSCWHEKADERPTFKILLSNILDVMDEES

The pIC50 is the negative decadic logarithm of the IC50, by convention in mol/L. In the case of `C[C@H]1CC[C@@H](Nc2n[nH]c3nccc(-c4ccc(CNC(=O)c5nc(C(C)(C)C)no5)c(F)c4)c23)CN1C(=O)C1(C)COC1` [Example 419, 3-tert-butyl-N-{[2-fluoro-4-(3-{[(3R,6S)-6-methyl-1-(3-methyloxetane-3-carbonyl)piperidin-3-yl]amino}-1H-pyrazolo[3,4-b]pyridin-4-yl)phenyl]methyl}-1,2,4-oxadiazole-5-carboxamide], the results for the pIC50 at Btk, against TEC and on panel of kinases were 8.73, 5.72 and 5.30, respectively.
The like results for `C[C@H]1CC[C@@H](Nc2n[nH]c3nccc(-c4ccc(CNC(=O)c5nc(C(C)(C)C)no5)c(F)c4)c23)CN1C(=O)CO` [Example 420, 3-tert-butyl-N-{[2-fluoro-4-(3-{[(3R,6S)-1-(hydroxyacetyl)-6-methylpiperidin-3-yl]amino}-1H-pyrazolo[3,4-b]pyridin-4-yl)phenyl]methyl}-1,2,4-oxadiazole-5-carboxamide] were, in that order, 9.42, 6.54 and 5.91.
`CC(=O)OCC(=O)N1C[C@H](Nc2n[nH]c3nccc(-c4ccc(CNC(=O)c5nc(C(C)(C)C)no5)c(F)c4)c23)CC[C@@H]1C` [Example 421, 2-[(2S,5R)-5-{[4-(4-{[(3-tert-butyl-1,2,4-oxadiazole-5-carbonyl)amino]methyl}-3-fluorophenyl)-1H-pyrazolo[3,4-b]pyridin-3-yl]amino}-2-methylpiperidin-1-yl]-2-oxoethyl acetate]: the negative-log IC50 (pIC50) at Btk was 9.04; on TEC, 5.92; on panel of kinases, 5.50.
Consider `CC(=O)N[C@@H]1CCN(c2n[nH]c3nccc(-c4ccc(CNC(=O)c5ccc(C(C)(C)O)cn5)c(F)c4)c23)C1` [Example 424, N-[(4-{3-[(3R)-3-acetamidopyrrolidin-1-yl]-1H-pyrazolo[3,4-b]pyridin-4-yl}-2-fluorophenyl)methyl]-5-(2-hydroxypropan-2-yl)pyridine-2-carboxamide], for which the pIC50 on Btk was 7.54; against TEC, 5.26; on panel of kinases, 5.16.
